Key:
[1] = target: T1, recombinant human ALK5 (TGF-βR1) protein (Homo sapiens, UniProt P36897); assay: Biochemical ALK5 (TGF-βR1) assay to measure pKi (LANCE Ultra ULight kinase assay); details: apparent pKi, converted from pIC50 using the Cheng-Prusoff equation
T1 construct: purchased Life Technologies PR9075A
T1 sequence (P36897 34-503): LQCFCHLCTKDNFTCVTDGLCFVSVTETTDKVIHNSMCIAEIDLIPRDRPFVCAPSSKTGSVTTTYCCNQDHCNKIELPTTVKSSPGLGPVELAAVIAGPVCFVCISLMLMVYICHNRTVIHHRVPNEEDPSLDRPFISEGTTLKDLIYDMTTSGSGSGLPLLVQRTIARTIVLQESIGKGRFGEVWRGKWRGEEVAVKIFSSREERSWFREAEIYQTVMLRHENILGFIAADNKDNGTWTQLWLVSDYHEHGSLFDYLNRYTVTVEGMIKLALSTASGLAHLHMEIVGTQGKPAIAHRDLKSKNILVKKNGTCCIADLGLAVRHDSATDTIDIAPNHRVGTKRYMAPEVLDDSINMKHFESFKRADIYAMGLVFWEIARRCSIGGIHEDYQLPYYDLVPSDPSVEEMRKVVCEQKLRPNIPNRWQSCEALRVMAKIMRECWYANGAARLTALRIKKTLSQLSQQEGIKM
How it was run: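 TR-FRET kinase format: compound dose range 10 μM–25 pM equilibrated 60 min with human ALK5 and ULight-labelled topoisomerase 2α peptide in HEPES/MgCl2 buffer pH 7.5 with DTT. Reaction started with ATP (125 μM stock, 5× final), 60 min at 37° C, stopped with EDTA/Eu-anti-phospho antibody; pKi derived from pIC50 via Cheng-Prusoff.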

[2] = test system: TGF-β-stimulated SMAD3 phosphorylation in BEAS-2B cells; assay: Cellular ALK5 potency assay, inhibition of TGF-β stimulated pSMAD3 formation in BEAS-2B cells; type: cell-based; details: Homo sapiens, inhibition of TGF-β (10 ng/mL) stimulated pSMAD3 formation, 1 hour compound incubation, read-out: BEAS2B pIC50 (converted)
How it was run: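 Phospho-SMAD3 was quantified by AlphaLISA in lysates of human lung epithelial BEAS-2B cells. Compound was added 1 h (37 °C, HEPES/BSA-supplemented HBSS) before a 30 min challenge with 10 ng/mL TGF-β. Values are pIC50 relative to stimulated cells without compound.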

| Ki [1] | SMILES | IC50 [2] |
| --- | --- | --- |
| 0.0398 to 0.316 nM | CN(C)C1CCN(c2cnc3ccc(-c4c[nH]nc4-c4cc(Cl)c(F)cc4F)nc3c2)C1 (racemic) [Compound 6-22, rac-(3S)-1-[6-[3-(5-chloro-2,4-difluoro-phenyl)-1H-pyrazol-4-yl]-1,5-naphthyridin-3-yl]-N,N-dimethyl-pyrrolidin-3-amine] | 25.1 to 158 nM |
| 0.398 to 3.16 nM | Fc1ccc(Cl)cc1-c1[nH]cnc1-c1ccc2ncc(N3CCNCC3)cc2c1 [Compound 17-4, 6-(5-(5-chloro-2-fluorophenyl)-1H-imidazol-4-yl)-3-(piperazin-1-yl)quinoline] | 25.1 to 158 nM |
| 0.0398 to 0.316 nM | COCc1cccc(-c2n[nH]cc2-c2ccc3ncc(-c4cnn(CCN)c4)cc3n2)c1 [Compound 14-13, 2-[4-[6-[3-[3-(methoxymethyl)phenyl]-1H-pyrazol-4-yl]-1,5-naphthyridin-3-yl]pyrazol-1-yl]ethanamine] | 25.1 to 158 nM |
| 0.0398 to 0.316 nM | CN1CCN(C2CCN(c3cnc4ccc(-c5nc[nH]c5-c5cc(Cl)ccc5F)cc4c3)CC2)CC1 [Compound 17-7, 6-[5-(5-chloro-2-fluoro-phenyl)-1H-imidazol-4-yl]-3-[4-(4-methylpiperazin-1-yl)-1-piperidyl]quinoline] | 25.1 to 158 nM |
| 0.398 to 3.16 nM | Fc1ccc(Cl)cc1-c1nc2ccccn2c1-c1ccc2ncc(-c3cn[nH]c3)cc2c1 [Compound 19-3, 6-[2-(5-chloro-2-fluoro-phenyl)imidazo[1,2-a]pyridin-3-yl]-3-(1H-pyrazol-4-yl)quinoline] | 25.1 to 158 nM |
| 0.398 to 3.16 nM | O=C(O)Cn1cc(-c2cnc3ccc(-c4c[nH]nc4-c4ccc(F)c(F)c4)nc3c2)cn1 [Compound 8-18, 2-[4-[6-[3-(3,4-difluorophenyl)-1H-pyrazol-4-yl]-1,5-naphthyridin-3-yl]pyrazol-1-yl]acetic acid] | 25.1 to 158 nM |
| 0.0398 to 0.316 nM | CC(C)N1CCN(CCNc2cnc3ccc(-c4nc[nH]c4-c4cc(Cl)ccc4F)nc3c2)CC1 [Compound 2-2, 6-[5-(5-chloro-2-fluoro-phenyl)-1H-imidazol-4-yl]-N-[2-(4-isopropylpiperazin-1-yl)ethyl]-1,5-naphthyridin-3-amine] | 25.1 to 158 nM |
| 0.0398 to 0.316 nM | CNC1CN(c2cnc3ccc(-c4c[nH]nc4-c4cc(Cl)ccc4F)nc3c2)C1 [Compound 1-49, 1-(6-(3-(5-chloro-2-fluorophenyl)-1H-pyrazol-4-yl)-1,5-naphthyridin-3-yl)-N-methylazetidin-3-amine] | ≤ 20 nM |
| 0.0398 to 0.316 nM | COC(=O)N1CCc2nnc(-c3cnc4ccc(-c5c[nH]nc5-c5cc(Cl)c(F)cc5F)nc4c3)cc2C1 [Compound 6-61, methyl 3-[6-[3-(5-chloro-2,4-difluoro-phenyl)-1H-pyrazol-4-yl]-1,5-naphthyridin-3-yl]-7,8-dihydro-5H-pyrido[4,3-c]pyridazine-6-carboxylate] | 25.1 to 158 nM |
| 0.0398 to 0.316 nM | Fc1ccc(Cl)cc1-c1n[nH]cc1-c1ccc2ncc(NCC3CCN3)cc2n1 (stereo not drawn) [Compound 1-17, N-(azetidin-2-ylmethyl)-6-[3-(5-chloro-2-fluoro-phenyl)-1H-pyrazol-4-yl]-1,5-naphthyridin-3-amine] | 25.1 to 158 nM |
| 0.0398 to 0.316 nM | Fc1cc(F)c(-c2n[nH]cc2-c2ccc3ncc(-c4cc5n(n4)CCNC5)cc3n2)cc1Cl [Compound 6-56, 2-[3-(5-chloro-2,4-difluoro-phenyl)-1H-pyrazol-4-yl]-7-(4,5,6,7-tetrahydropyrazolo[1,5-a]pyrazin-2-yl)-1,5-naphthyridine] | 25.1 to 158 nM |
| 0.0398 to 0.316 nM | CC(C)N1CC=C(c2cnc3ccc(-c4c[nH]nc4-c4cc(Cl)c(F)cc4F)nc3c2)C1 [Compound 6-44, 2-[3-(5-chloro-2,4-difluoro-phenyl)-1H-pyrazol-4-yl]-7-(1-isopropyl-2,5-dihydropyrrol-3-yl)-1,5-naphthyridine] | ≤ 20 nM |

Reference: US11730720B2, “ALK5 inhibitors” (THERAVANCE BIOPHARMA R&D IP, LLC, priority 2018, dated 2023)
